# Literature values as cited in patent US10683273B2, “Compounds as DNA probes, methods and applications thereof” (JAWAHARLAL NEHRU CENTRE FOR ADVANCED SCIENTIFIC RESEARCH, priority 2015, dated 2020).
# Experiments:
# DNA = details: literature values (footnotes a, b); cited from earlier work
# [1] = literature values (footnotes a, b); cited from earlier work
SMILES,Stokes shift in presence of DNA (DNA) [nm],Stokes shift in absence of DNA [1] [nm]
"CN1C(=Cc2cc[n+](C)c3ccccc23)Oc2ccccc21 [Oxazole yellow (YO), Oxazole yellow]",19,100
CN(C)CCCN(CCCN(C)C)c1cc(C=C2Sc3ccccc3N2C)c2ccccc2[n+]1-c1ccccc1 [Picogreen],21,30
CCCN(CCCN(C)C)c1cc(/C=C2/Sc3ccccc3N2C)c2ccccc2[n+]1-c1ccccc1 [SYBR Green 1],26,36
CN1/C(=C/c2cc[n+](CCC[N+](C)(C)CCC[N+](C)(C)CCC[n+]3ccc(/C=C4\Sc5ccccc5N4C)c4ccccc43)c3ccccc23)Sc2ccccc21.[I-].[I-].[I-].[I-] [TOTO-1],19,149
"CN1C(=Cc2cc[n+](C)c3ccccc23)Sc2ccccc21 [Thiazole orange (TO), Thiazole orange]",18,139
CN1/C(=C/c2cc[n+](CCC[N+](C)(C)CCC[N+](C)(C)CCC[n+]3ccc(/C=C4/Oc5ccccc5N4C)c4ccccc43)c3ccccc23)Oc2ccccc21.[I-].[I-].[I-].[I-] [YOYO-1],20,106
